Experiments:
rabbit liver esterase = assay: Incubation with rabbit liver esterase, HPLC analysis; format: in vitro ADME; conditions: 30 min
[1] = tested on: MDA-MB-231 breast cancer cells; assay: In vitro cytotoxicity, Alamar blue metabolic assay, scaffolds in transwell inserts; format: cell-based
Method: MDA-MB-231 breast cancer cells and primary human dermal fibroblasts (HDFs) were obtained from the ATCC (USA). Both cell types were cultured in DMEM supplemented with 10% fetal bovine serum (FBS) and 25 μg/mL Gentamicin. For toxicity studies HDFs were seeded at 5,000 cells per well/1 mL medium in a 12-well plate and allowed to reach confluency prior to application of experimental conditions. MDA-MB-231 cell were seeded in 12-well plates at a seeding density of 5,000 per well/1 mL medium and incubated at 37° C. in a humidified atmosphere of 95% air and 5% CO2 for 24 h prior to application of experimental conditions. […]
Cells subjected to these experimental conditions were allowed to culture for 6 days at which point cell viability was measured using Alamar blue metabolic assay. […] The supernatant from each well was transferred to a 96-well plate and was measured using a fluorescence plate reader (Tecan, Männedorf, Switzerland) by applying wavelength excitation of 560 nm and read it at emission of 590 nm, which is directly correlated to the viable cell number, and inversely correlated with the toxicity of the cross-linked polymer tissue scaffolds. The mean absorbance for each treatment was determined and then expressed as a percent of viability relative to the control. […]

SMILES | conversion to the free acid (rabbit liver esterase) | IC50 ([1]; Homo sapiens, 144 h, MDA-MB-231, 6 days, free curcumin dissolved in DMSO, diluted in media, max 1% DMSO) [µM] | curcumin uptake by cells or degradation after addition to media ([1]; free curcumin added to cell culture media)
CCOC(=O)[C@H](Cc1ccc(O)cc1)NC(=O)CCc1ccc(O)cc1 [DTE, desaminotyrosyl-tyrosine ethyl ester] | approximately 70% |  | 
COc1cc(/C=C/C(=O)CC(=O)/C=C/c2ccc(O)c(OC)c2)ccc1O [free curcumin, curcumin] |  | 14 | less than 48 hours

Source: patent publication US10105467B2, “Biocompatible polymer compositions for tissue void filling” (Rutgers, The State University of New Jersey, priority 2013, dated 2018)
